Measurements from patent US20040058974A1, “Treating fungal infections” (SCHERING CORPORATION, priority 2002, published 2004).
Entries after “also recorded” stand apart in the source; their conditions may differ. Like-named read-outs stand apart in the source and are kept apart here.

How the values were obtained:
[1] = Open-label 3-way crossover clinical pharmacology study: plasma posaconazole pharmacokinetics in fasted healthy subjects (observed values and one-compartment model); assay type: in vivo, human; details: for bioavailability / Tmax / Cmax / Mean Cmin (SD) 48 hours after the initial dose / Increase in bioavailability vs regimen A / Change of estimated AUC(I) relative to regimen A: fasted; for bioavailability: model estimate (SE); for AUC(0-t): read-out: Steady-state AUC(0-24 hr); for Cmax: read-out: Mean Cmax (SD)
Source text: Men and women, 18 to 45 years of age were recruited for the clinical pharmacology study. Subjects were required to be of normal body weight (within 15% of ideal body weight) and generally in good health. Inclusion criteria included normal electrocardiogram (ECG) and laboratory test results, along with negative drug and pregnancy screens; nonlactating women of childbearing potential were required to use a barrier method of contraception during the study. Exclusion criteria included substance abuse or significant food or drug allergy, donation of blood or use of an investigational drug during the previous 90 days, use of any prescription or over-the-counter drugs other than acetaminophen in the previous 2 weeks, or use of alcohol during the previous 48 hours. Also excluded were subjects with a positive HIV, hepatitis B, or hepatitis C test, as were subjects with is a clinically significant systemic infection during the previous 4 weeks. Subjects who smoked ≧10 cigarettes daily were also excluded. This was an open-label, 3-way crossover study. Subjects who met the entry criteria were confined to the study center at least 12 hours prior to dosing and 48 hours after each dosing regimen. Subjects were discharged from the study site for a 1-week washout period between each arm of the study. Following an overnight fast, each subject received posaconazole as an oral suspension (40 mg/mL), using one of 3 dosing regimens: a single dose of 800 mg (regimen A); 2 doses of 400 mg given 12 hours apart (regimen B); or 4 doses of 200 mg given 6 hours apart (regimen C). Subjects were randomly assigned using a computer-generated random code to 1 of 6 treatment schedules (ABC, ACB, BAC, BCA, CAB, CBA). The oral posaconazole suspension was manufactured and supplied by Schering-Plough Research Institute, Kenilworth, N.J., USA. After dosing with an oral dosing syringe, the oral cavity was inspected to ensure that the subject had swallowed the suspension. Subjects remained fasted for 24 hours after the initial dose. During the first 14 hours, water was provided ad libitum and subjects received IV 1,400 mL D5W/0.5 normal saline at approximately 100 mL/hr as a calorie and fluid source. For regimen A, B, and C, blood samples were collected in heparin-containing tubes at baseline (0 hr) and at 2, 4, 5, 6, 8, 10, 12, 16, 24, and 48 hours after the first dose. For regimen B, blood samples were additionally collected at 14, 17, 18, 20, and 22 hours after the first dose. For regimen C, additional blood samples were collected at 11, 14, 17, 18, 20, 22, 23, 26, 28, and 36 hours after the first dose. Each sample was centrifuged within 15 minutes after collection for 10 minutes at 4° C. and 1,500 g. The resultant plasma was frozen (−20° C.) until assayed. Plasma posaconazole concentrations were quantified using a validated high-performance liquid chromatographic (HPLC) assay with a lower limit of quantitation (LOQ) of 5 ng/mL and a linear range of 5.0 to 5000 ng/mL. The observed values were the maximum plasma concentration (Cmax), time of maximum plasma concentration (Tmax), and the trough plasma concentration at 48 hours after the initial dose of posaconazole (Cmin). Based on previous experience in modeling concentration-time posaconazole data and goodness of fit criteria, a one-compartment oral model with a first-order rate of absorption and first-order rate of elimination was used. The intra-subject error was assumed to be additive, defined as, where Ci,j(t) and Gi,j(t) were the measured and predicted concentrations, respectively, for the j^th subject at time t under the i^th regimen. The predicted concentrations Gi,j(t) following treatments B and C were calculated using the principle of superpositioning, with a lag time equal to the dosing interval (B: 12 hours; C: 6 hours). The error term εi,j(t) was assumed to be N(0, σ^2 ε). Differences in exposure following the three dosage regimens were explored by allowing the bioavailability fraction (F) to differ between regimens. […]

[2] = Safety and tolerability in the 3-way crossover study (adverse events, vital signs, ECGs, laboratory tests); assay type: in vivo, human
Experimental: Physical examinations, vital signs, ECGs, and clinical laboratory tests were conducted at screening and at the end of the study (48 hours after the final dosing regimen). Treatment-emergent adverse events were recorded throughout the study. In addition, vital signs were evaluated prior to drug administration and at 24 and 48 hours after the first dose of each regimen.

[3] = Posaconazole pharmacokinetics in bone marrow transplant (BMT) patients, 200 mg q6h for up to 25 days; assay type: in vivo, human
Experimental: The exposures in the fasted healthy volunteers were confirmed in a study of posaconazole pharmacokinetics in bone marrow transplant (BMT) patients.
Upon extrapolation of model parameters to multiple dosing, the population mean AUC(0-24 hr) value following oral administration of 200 mg of posaconazole four times a day, preferably q 6 hr was estimated to be 12.4 mcg·hr/mL, representing an average plasma concentration of 0.5 mcg/mL. These estimates, based on data from healthy fasted volunteers, are in close agreement with pharmacokinetic data obtained from a study of patients undergoing high-dose chemotherapy and a bone marrow transplant who were orally administered posaconazole 200 mg q6 h for up to 25 days. […] These studies combined with other data form the basis for posaconazole dosing regimens in the clinical efficacy trials for posaconazole.

[4] = single daily dose; cited from earlier work
[5] = system: Candida species (including albicans, glabrata, and tropicalis), as well as other opportunistic fungi; details: in vitro and in vivo studies; cited from earlier work
[6] = given with food, rising single dose; cited from earlier work
[7] = 200 mg four times a day, model extrapolated to multiple dosing, healthy fasted volunteers

Average posaconazole plasma concentration ([1]; 200 mg QID oral): greater than 500 ng/mL
Average plasma concentration [1, 7]: 0.5 µg/mL
Population mean AUC(0-24 hr) [1, 7]: 12400 ng·h/mL
Average posaconazole plasma concentration ([1]; 400 mg BID oral): greater than 300 ng/mL
Absorption constant, Ka, estimate ([1]; Table 1, one-compartment model): 0.197 h⁻¹
Elimination constant, Ke, estimate ([1]; Table 1, one-compartment model): 0.045 h⁻¹
bioavailability ([1]; both sexes, human, plasma, oral, 200 mg QID vs 800 mg QD, read-out: Bioavailability fraction F3, regimen C relative to regimen A): 320 ± 70%
Tmax ([1]; both sexes, human, plasma, oral, 200 mg, regimen C: 200 mg every 6 h, read-out: Mean Tmax (SD) after the initial dose): 24.2 h
Tmax ([1]; both sexes, human, plasma, oral, 200 mg, regimen C: 200 mg every 6 h, read-out: Tmax after the final dose): 6.2 h
bioavailability ([1]; both sexes, human, plasma, oral, 400 mg BID vs 800 mg QD, read-out: Bioavailability fraction F2, regimen B relative to regimen A): 198 ± 35%
Tmax ([1]; both sexes, human, plasma, oral, 400 mg, regimen B: 400 mg every 12 h, read-out: Mean Tmax (SD) after the initial dose): 16.6 h
Tmax ([1]; both sexes, human, plasma, oral, 400 mg, regimen B: 400 mg every 12 h, read-out: Tmax after the final dose): 4.6 h
Tmax ([1]; both sexes, human, plasma, oral, 800 mg, regimen A: 800 mg single dose, read-out: Mean Tmax (SD) after the initial dose): 7.8 h
Tmax ([1]; both sexes, human, plasma, oral, 800 mg, regimen A: 800 mg single dose, read-out: Tmax after the final dose): 7.8 h
half-life ([1]; both sexes, human, plasma, oral, from absorption rate constant, fasting conditions, read-out: Estimated absorption half-life (converted)): 3.5 h
half-life ([1]; both sexes, human, plasma, oral, from elimination rate constant, read-out: Estimated terminal elimination half-life (converted)): 15 h
AUC ([1]; both sexes, human, plasma, oral, 200 mg QID, fasted healthy subjects, read-out: AUC (exposure)): ~12000 ng·h/mL
Vd/F ([1]; both sexes, human, plasma, oral, one-compartment model, read-out: V/F1 (volume of distribution) estimate): 4580 L
AUC(0-t) ([1]; both sexes, human, plasma, oral, regimen A 800 mg QD, model extrapolated to multiple dosing): 3900 ng·h/mL
AUC(0-t) ([1]; both sexes, human, plasma, oral, regimen B 400 mg BID, model extrapolated to multiple dosing): 7700 ng·h/mL
Cmax ([1]; both sexes, human, plasma, oral, regimen B: 400 mg every 12 h (2 doses)): 225 ng/mL
AUC(0-t) ([1]; both sexes, human, plasma, oral, regimen C 200 mg QID, model extrapolated to multiple dosing): 12400 ng·h/mL
Cmax ([1]; both sexes, human, plasma, oral, regimen C: 200 mg every 6 h (4 doses)): 405 ng/mL
Cmax ([1]; both sexes, human, plasma, regimen A: 800 mg single oral dose): 137 ng/mL
Dose at which oral absorption is saturable ([1]; fasted subjects, suggested by concentration-time curves): 200 mg
Elimination rate constant ([1]; one-compartment model, all regimens): 0.045 h⁻¹
Absorption rate constant ([1]; one-compartment model, fasting conditions, all regimens): 0.197 h⁻¹
F1 (Regimen A) bioavailability fraction ([1]; reference, fixed equal to 1, 800 mg single dose): 1.0
Estimated steady-state average concentration ([1]; regimen A 800 mg QD, model extrapolated to multiple dosing): 162 ng/mL
Mean Cmin (SD) 48 hours after the initial dose ([1]; regimen A: 800 mg single dose): 50 (+/−26) ng/mL
Increase in bioavailability vs regimen A ([1]; regimen B 400 mg BID vs 800 mg single dose): 98%
Estimated steady-state average concentration ([1]; regimen B 400 mg BID, model extrapolated to multiple dosing): 320 ng/mL
Change of estimated AUC(I) relative to regimen A ([1]; regimen B 400 mg every 12 h): doubled
Mean Cmin (SD) 48 hours after the initial dose ([1]; regimen B: 400 mg every 12 h): 96 (+/−46) ng/mL
Increase in bioavailability vs regimen A ([1]; regimen C 200 mg QID vs 800 mg single dose): 220%
Estimated steady-state average concentration ([1]; regimen C 200 mg QID, model extrapolated to multiple dosing): 517 ng/mL
Change of estimated AUC(I) relative to regimen A ([1]; regimen C 200 mg every 6 h): tripled
Mean Cmin (SD) 48 hours after the initial dose ([1]; regimen C: 200 mg every 6 h): 189 (+/−135) ng/mL
Average steady-state plasma concentration ([3]; 200 mg q6h for up to 25 days, high-dose chemotherapy and bone marrow transplant patients): 0.428 µg/mL
AUC ([3]; human, plasma, oral, 200 mg QID, BMT patients, read-out: AUC (exposure)): ~11000 ng·h/mL
AUC(0-t) ([3]; human, plasma, oral, 200 mg q6h for up to 25 days, high-dose chemotherapy and bone marrow transplant patients, read-out: AUC(0-24 hr) at steady state): 10600 ng·h/mL
Compound: CC[C@@H]([C@H](C)O)n1ncn(-c2ccc(N3CCN(c4ccc(OC[C@@H]5CO[C@@](Cn6cncn6)(c6ccc(F)cc6F)C5)cc4)CC3)cc2)c1=O [posaconazole]
Subjects reporting at least 1 adverse event ([2]; 18 subjects, all regimens): 33%
Changes in vital signs, physical examinations, laboratory values, ECGs ([2]; all regimens): no clinically significant changes; also recorded: unchanged relative to baseline
Intensity of adverse events ([2]; all regimens): mild in intensity
Subjects reporting chest pain ([2]; regimen C): 11%
Subjects reporting headache ([2]; regimens A and B): 11%
Safety and tolerability ([2]; total daily dose 800 mg, regardless of dosing regimen): safe and well tolerated
Increase in oral bioavailability with a high fat meal compared to the fasted state [4]: approximately 4 fold
Antifungal activity [5]: good activity
Doses at which absorption saturated [6]: above 800 mg
